Read-outs that look alike come from different tables or passages of the source.
How the values were obtained:
physchem = details: 100 mM phosphate buffer in a 96 well plate, pH 8
Description: A 96 well plate was prepared with each well containing 100 microliters of 100 mM phosphate buffer at pH values ranging from 8.0 to 2.5 in 0.5 unit increments. […] A set of 10× diluted wells were also prepared to eliminate artifacts due to self-quenching of the fluorophore at high concentrations. The 10× dilutions were prepared by diluting the 1 mg/mL solution to 0.1 mg/mL in DMSO, and then adding 10 microliters of this solution to 100 microliters of 100 mM phosphate buffer in each of the wells.
The absorption spectra from 250 nanometers (nm) to 500 nm were recorded using a SPECTRAMAX M5 fluorescence plate reader (available from Molecular Devices of Sunnyvale Calif.) for each pH value.
Emission spectra at wavelengths from 410 nm to 700 nm were also recorded on the SPECTRAMAX M5 fluorescence plate reader at an excitation wavelength of 400 nm over the range of pH values in the plate. […]
The absorption at 400 nm and emission at 450 nm over the range of pH values were recorded on a SPECTRAMAX M5 fluorescence plate reader. […]
The absorption spectra from 300 nanometers (nm) to 700 nm were recorded for the 10× diluted wells using a SPECTRAMAX M5 fluorescence plate reader (available from Molecular Devices of Sunnyvale Calif.) for each pH value. […]

[1] = tested on: Escherichia coli (ATCC 29425); test: Detection of microbial colonies on bacterial culture plates by fluorescence imaging; format: cell-based; details: for time after which colonies were apparent in the images: Plates 8-1 and C-1, 200 nM, with MX-180 particles, about 20° C. to 27° C.; for mean fluorescence intensity of colonies over time: Plates 8-1 and C-1, averaged across 6 colonies, 30 seconds fluorescent illumination
Description: A mixture of 50 grams of xanthan gum powder and 50 grams of locust bean gum powder was placed in a 500 mL bottle and shaken manually for about 5 minutes. A cover film was prepared by sprinkling the mixture onto the adhesive of a pressure-sensitive adhesive coated sheet that is commercially available under the trade designation 9795R ADVANCED SEALING TAPE from 3M Company in St. Paul Minn. The adhesive coated sheet was tilted to remove excess powder. The coating weight of the gums was approximately 85 milligrams per 24 square inches (i.e, 0.55 milligrams per square centimeter).
A growth medium mixture was prepared by mixing 22.8 parts of pancreatic digest of casein, 15.9 parts of yeast extract, 45.5 parts of sodium pyruvate, 4.1 parts of dextrose, 9.0 parts of dibasic potassium phosphate, and 2.8 parts of monobasic potassium phosphate. A growth medium broth was prepared by mixing 500 mL of deionized water with 14.78 grams of the growth medium mixture in a beaker using an air motor mixer followed by adding 5 grams of locust bean gum in small increments, and mixing for several minutes. The beaker was covered with foil and the mixture was heated to 80° C., mixed for about 6 minutes, and then allowed to cool for about ten minutes while mixing without heat. The broth was then poured into a sterilized beaker, covered with a plastic bag and refrigerated. The cooled broth was stirred carefully with a spatula to avoid forming air bubbles and then knife coated onto a 24.4 cm wide sheet of 4 mil thick polyethylene terephthalate film that is commercially available under the trade designation MELINEX 453 from DuPont Teijin Films in Hopewell Va. The broth coated film was dried in an oven set at a temperature of 210° C. for about 10 minutes. The dried coating weight was about 1 mg per square centimeter.
A 20.3 centimeter (cm) wide sheet of 4 mil (a mil is equal to 0.001 inches) thick closed cell polystyrene foam (commercially available from American Fuji Seal, Inc. of Bardstown, Ky.) was laminated to a pressure-sensitive adhesive transfer tape on a release liner. The specific transfer tape used has an acrylic pressure-sensitive adhesive and is commercially available from 3M Company (Saint Paul, Minn.) under the trade designation 3M […] ADHESIVE 927. Circular discs measuring 5 cm in diameter were die-cut and removed from the laminate, forming circular openings centered within a 7.6 cm square from one end of 7.6 cm by 10.16 cm rectangle. The liner was removed and the adhesive-coated surface of the polystyrene foam was adhered to the broth coated film to provide a base member having a broth-coated self-supporting substrate and a hydrophobic spacer element (i.e., “foam dam”) adhered to the broth-coated surface of the supporting substrate. Rectangular plates measuring 7.6 cm by 10.16 cm were cut from the laminate, with the circular openings centered within a 7.6 cm square on one end of the 10.16 cm length. The cover film was attached to the base member with the powder coated side facing the foam dam with a double sided pressure-sensitive adhesive tape to form a culture plate.
For Example 8, an indicator solution was prepared by dissolving FTU-gal from Example 6 in DMSO at a 50 mM (millimolar) concentration (Indicator 1). The solution was further diluted 20-fold to provide a 2.5 mM solution (Indicator 2).
For Comparative Example C1, indicator solutions were prepared by dissolving TU-gal in DMSO at a 20 mM concentration (Indicator 3). […]

[2] = see Bioorg. and Med. Chem. Lett., 8, 3107-3110 (1998); cited from earlier work
β-D-galactosidase = test: Emission of fluorogenic galactoside at pH 2.5 to 8.0 in the presence and absence of β-D-galactosidase; format: biochemical; details: FIG. 6; emission 495 nm, excitation 430 nm, pH 5 to 7, with β-D-galactosidase; about two-thirds of sample fluorinated
Description: Absorbance and emission spectra for the first fraction of FTU-gal was recorded at pH 2.5 to 8.0 in the presence and absence of β-D-galactosidase, and then compared to spectra of TU-gal (prepared according to U.S. Pat. No. 6,566,508 (Bentsen et al.) under the same conditions.
About two-thirds of the sample tested was fluorinated.

| pKa (physchem) | Compound | time after which colonies were apparent in the images [1] [h] | mean fluorescence intensity of colonies over time [1] | also measured |
| --- | --- | --- | --- | --- |
| ~4.5 | CCOC(=O)c1cc2cc(F)c(O)cc2oc1=O [6-FEHC, 6-fluoro-3-ethylcarboxylate-7-hydroxycoumarin] | – | – | – |
| – | O=c1oc2cc(O[C@@H]3O[C@H](CO)[C@H](O)[C@H](O)[C@H]3O)ccc2cc1-c1cccs1 [TU-gal, 3-thienylumbelliferone-pyanogalactoside, reference compound] | 14 | tended to plateau over time | – |
| – | Cc1cc(=O)oc2c(F)c(O)c(F)cc12 [6,8-difluoro-4-methyl-7-hydroxycoumarin] | – | – | pKa [2]: 4.2 |
| – | fluorinated 3-thienylumbelliferone-pyranogalactoside [FTU-gal] | 14 | continued to increase | enhancement in intensity versus TU that is not fluorinated (β-D-galactosidase): more than 2 fold; signal to noise (background) ratio over time ([1]; Plates 8-1 and C-1, six colonies and six background spots): always higher |
| ~6.5 | CCOC(=O)c1cc2ccc(O)cc2oc1=O [EHC, 3-ethylcarboxylate-7-hydroxycoumarin, reference compound] | – | – | – |

Source: patent US9896711B2, “Fluorogenic or fluorophoric compounds and uses thereof” (3M INNOVATIVE PROPERTIES COMPANY, priority 2011, dated 2018)
